From ChEMBL document CHEMBL1158547, “KDR Kinase Inhibitor Isolated from the Mushroom Boletopsis leucomelas” (J Nat Prod, 2010)

Assays:
[1] = tested on: HUVEC; experiment: Antiproliferative activity against HUVEC after 72 hrs by WST8 dye reduction assay; format: functional, cell-based; conditions: Homo sapiens
[2] = molecular target: Vascular endothelial growth factor receptor 2 (Homo sapiens, UniProt P35968); experiment: Inhibition of KDR after 2 hrs incubation
Chain of Vascular endothelial growth factor receptor 2 (P35968 whole entry): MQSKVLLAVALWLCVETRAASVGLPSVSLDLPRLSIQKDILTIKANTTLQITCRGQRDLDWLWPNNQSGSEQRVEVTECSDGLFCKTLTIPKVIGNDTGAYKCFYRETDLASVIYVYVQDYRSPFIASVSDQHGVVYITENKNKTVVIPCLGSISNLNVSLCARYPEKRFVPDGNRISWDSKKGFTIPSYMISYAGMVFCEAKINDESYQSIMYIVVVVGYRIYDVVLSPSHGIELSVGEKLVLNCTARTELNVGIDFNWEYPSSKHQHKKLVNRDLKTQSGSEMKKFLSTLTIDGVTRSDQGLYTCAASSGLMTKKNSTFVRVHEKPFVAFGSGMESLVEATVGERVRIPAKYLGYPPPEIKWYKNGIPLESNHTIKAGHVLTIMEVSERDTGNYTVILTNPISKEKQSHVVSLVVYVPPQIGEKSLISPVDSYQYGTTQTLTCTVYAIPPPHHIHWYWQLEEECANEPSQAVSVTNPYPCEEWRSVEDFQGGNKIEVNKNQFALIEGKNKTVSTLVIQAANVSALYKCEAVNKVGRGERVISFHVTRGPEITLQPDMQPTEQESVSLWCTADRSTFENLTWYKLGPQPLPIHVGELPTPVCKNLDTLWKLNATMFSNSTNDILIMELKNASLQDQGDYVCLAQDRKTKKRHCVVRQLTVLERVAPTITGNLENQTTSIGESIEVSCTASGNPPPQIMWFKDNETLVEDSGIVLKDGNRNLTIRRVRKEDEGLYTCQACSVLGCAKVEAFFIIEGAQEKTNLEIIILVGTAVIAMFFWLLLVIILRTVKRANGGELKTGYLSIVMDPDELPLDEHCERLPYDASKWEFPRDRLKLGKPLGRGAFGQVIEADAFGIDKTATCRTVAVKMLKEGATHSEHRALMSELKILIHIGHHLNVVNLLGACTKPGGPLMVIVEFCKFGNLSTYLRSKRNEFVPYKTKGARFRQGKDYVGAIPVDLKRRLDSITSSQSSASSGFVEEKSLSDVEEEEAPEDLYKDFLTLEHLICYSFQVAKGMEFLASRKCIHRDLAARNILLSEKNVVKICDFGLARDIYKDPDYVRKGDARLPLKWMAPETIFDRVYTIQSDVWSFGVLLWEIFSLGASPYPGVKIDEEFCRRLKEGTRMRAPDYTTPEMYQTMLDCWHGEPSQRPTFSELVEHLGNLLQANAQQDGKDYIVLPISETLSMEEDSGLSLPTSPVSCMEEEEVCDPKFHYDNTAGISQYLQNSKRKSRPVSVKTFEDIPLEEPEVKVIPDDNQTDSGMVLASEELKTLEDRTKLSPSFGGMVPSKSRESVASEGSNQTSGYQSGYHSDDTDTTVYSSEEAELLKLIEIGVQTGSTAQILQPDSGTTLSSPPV

- IC50 [2]: 70.7 µM
Structure (SMILES): CC(=O)Oc1c(-c2ccc(O)c(O)c2)c(O)c(O)c2c1oc1cc(O)c(O)cc12 [BOLETOPSIN C]
- IC50 [1]: 9.04 µM
